According to ChEMBL document CHEMBL3580533, “Antagonism/Agonism modulation to build novel antihypertensives selectively triggering i1-imidazoline receptor activation” (ACS Med Chem Lett, 2015):
Active and inactive are the calls of the source. No cut-off for these calls is given here.

What was measured:
[1] = target: Nischarin (Rattus norvegicus, UniProt Q4G017); test: Displacement of [125I]-p-iodoclonidin from I1-imidazoline receptor in rat PC12 cell membranes; design: species or system PC-12
[2] = tested on: Rattus norvegicus; test: Reduction in mean arterial blood pressure in spontaneously hypertensive rat at 30 mg/kg, ip administered as single dose and measured 60 mins post dose by tail-cuff plethysmography; format: functional; conditions: 1 h
[3] = tested on: Rattus norvegicus; test: Reduction in heart rate in spontaneously hypertensive rat at 30 mg/kg, ip administered as single dose and measured 60 mins post dose by tail-cuff plethysmography; format: functional; conditions: 1 h
[4] = tested on: Rattus norvegicus; test: Reduction in mean arterial blood pressure in spontaneously hypertensive rat at 30 mg/kg, ip administered as single dose and measured 30 mins post dose by tail-cuff plethysmography; format: functional; conditions: 0.5 h
[5] = target: T1, Adrenergic receptor alpha-2 (Rattus norvegicus, UniProt P22086+P19328+P22909); test: Displacement of [3H]-clonidine from alpha2 adrenoreceptor in rat cortex membranes; format: cell membranes
T1 sequence (P22086 whole entry): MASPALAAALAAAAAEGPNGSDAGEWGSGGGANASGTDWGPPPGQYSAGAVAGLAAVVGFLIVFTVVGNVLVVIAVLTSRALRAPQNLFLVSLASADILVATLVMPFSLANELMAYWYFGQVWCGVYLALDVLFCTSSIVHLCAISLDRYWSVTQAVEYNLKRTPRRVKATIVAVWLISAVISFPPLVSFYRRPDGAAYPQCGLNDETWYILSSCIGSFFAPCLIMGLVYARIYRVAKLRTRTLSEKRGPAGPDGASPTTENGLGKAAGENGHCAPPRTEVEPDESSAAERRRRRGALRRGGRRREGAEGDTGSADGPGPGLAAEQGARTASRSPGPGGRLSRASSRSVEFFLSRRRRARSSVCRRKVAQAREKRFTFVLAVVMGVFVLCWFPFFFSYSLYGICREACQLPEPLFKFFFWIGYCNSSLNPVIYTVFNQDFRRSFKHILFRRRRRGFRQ
T1 sequence (P19328 whole entry): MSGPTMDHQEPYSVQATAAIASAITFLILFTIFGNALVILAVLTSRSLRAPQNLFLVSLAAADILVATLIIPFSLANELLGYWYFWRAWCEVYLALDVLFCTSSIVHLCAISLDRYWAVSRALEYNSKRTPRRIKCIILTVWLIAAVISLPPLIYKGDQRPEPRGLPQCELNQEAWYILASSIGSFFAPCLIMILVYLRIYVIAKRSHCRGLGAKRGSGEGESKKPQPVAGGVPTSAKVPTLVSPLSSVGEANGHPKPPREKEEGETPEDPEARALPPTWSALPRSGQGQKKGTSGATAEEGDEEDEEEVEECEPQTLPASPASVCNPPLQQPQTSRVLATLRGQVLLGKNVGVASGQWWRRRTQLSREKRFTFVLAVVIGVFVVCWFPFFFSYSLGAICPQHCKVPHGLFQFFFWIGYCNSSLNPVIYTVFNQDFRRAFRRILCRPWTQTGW
T1 sequence (P22909 whole entry): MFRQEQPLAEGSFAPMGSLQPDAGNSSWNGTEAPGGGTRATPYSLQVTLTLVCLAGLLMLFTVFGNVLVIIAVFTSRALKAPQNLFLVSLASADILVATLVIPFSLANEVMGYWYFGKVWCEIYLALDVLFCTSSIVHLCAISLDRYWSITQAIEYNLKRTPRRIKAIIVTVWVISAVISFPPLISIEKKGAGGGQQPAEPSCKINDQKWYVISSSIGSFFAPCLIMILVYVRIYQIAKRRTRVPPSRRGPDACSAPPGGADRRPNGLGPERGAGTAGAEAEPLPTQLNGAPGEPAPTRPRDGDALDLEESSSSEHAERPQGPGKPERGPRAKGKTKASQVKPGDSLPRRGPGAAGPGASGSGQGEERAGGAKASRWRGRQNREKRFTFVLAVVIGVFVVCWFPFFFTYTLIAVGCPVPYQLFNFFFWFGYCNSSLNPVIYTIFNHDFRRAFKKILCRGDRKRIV

[6] = tested on: Rattus norvegicus; test: Reduction in heart rate in spontaneously hypertensive rat at 30 mg/kg, ip administered as single dose and measured 120 mins post dose by tail-cuff plethysmography; format: functional; conditions: 2 h
[7] = tested on: Rattus norvegicus; test: Reduction in heart rate in spontaneously hypertensive rat at 30 mg/kg, ip administered as single dose and measured 30 mins post dose by tail-cuff plethysmography; format: functional; conditions: 0.5 h
[8] = tested on: Rattus norvegicus; test: Reduction in mean arterial blood pressure in spontaneously hypertensive rat at 30 mg/kg, ip administered as single dose and measured 120 mins post dose by tail-cuff plethysmography; format: functional; conditions: 2 h
[9] = tested on: Rattus norvegicus; test: Reduction in mean arterial blood pressure in spontaneously hypertensive rat at 30 mg/kg, ip administered as single dose and measured 30 to 120 mins post dose pre-treated with 30 mg/kg, ip 2-(1-phenylpropan-2-yl)-4,5-dihydro-1H-imidazole by tail-cuff plethysmography; format: functional, organism-based
[10] = tested on: PC-12; test: Selectivity ratio, […]-imidazoline receptor in rat PC12 cell membranes to […] adrenoreceptor in rat cortex membranes; format: cell-based

Nischarin, sequence (Q4G017 whole entry): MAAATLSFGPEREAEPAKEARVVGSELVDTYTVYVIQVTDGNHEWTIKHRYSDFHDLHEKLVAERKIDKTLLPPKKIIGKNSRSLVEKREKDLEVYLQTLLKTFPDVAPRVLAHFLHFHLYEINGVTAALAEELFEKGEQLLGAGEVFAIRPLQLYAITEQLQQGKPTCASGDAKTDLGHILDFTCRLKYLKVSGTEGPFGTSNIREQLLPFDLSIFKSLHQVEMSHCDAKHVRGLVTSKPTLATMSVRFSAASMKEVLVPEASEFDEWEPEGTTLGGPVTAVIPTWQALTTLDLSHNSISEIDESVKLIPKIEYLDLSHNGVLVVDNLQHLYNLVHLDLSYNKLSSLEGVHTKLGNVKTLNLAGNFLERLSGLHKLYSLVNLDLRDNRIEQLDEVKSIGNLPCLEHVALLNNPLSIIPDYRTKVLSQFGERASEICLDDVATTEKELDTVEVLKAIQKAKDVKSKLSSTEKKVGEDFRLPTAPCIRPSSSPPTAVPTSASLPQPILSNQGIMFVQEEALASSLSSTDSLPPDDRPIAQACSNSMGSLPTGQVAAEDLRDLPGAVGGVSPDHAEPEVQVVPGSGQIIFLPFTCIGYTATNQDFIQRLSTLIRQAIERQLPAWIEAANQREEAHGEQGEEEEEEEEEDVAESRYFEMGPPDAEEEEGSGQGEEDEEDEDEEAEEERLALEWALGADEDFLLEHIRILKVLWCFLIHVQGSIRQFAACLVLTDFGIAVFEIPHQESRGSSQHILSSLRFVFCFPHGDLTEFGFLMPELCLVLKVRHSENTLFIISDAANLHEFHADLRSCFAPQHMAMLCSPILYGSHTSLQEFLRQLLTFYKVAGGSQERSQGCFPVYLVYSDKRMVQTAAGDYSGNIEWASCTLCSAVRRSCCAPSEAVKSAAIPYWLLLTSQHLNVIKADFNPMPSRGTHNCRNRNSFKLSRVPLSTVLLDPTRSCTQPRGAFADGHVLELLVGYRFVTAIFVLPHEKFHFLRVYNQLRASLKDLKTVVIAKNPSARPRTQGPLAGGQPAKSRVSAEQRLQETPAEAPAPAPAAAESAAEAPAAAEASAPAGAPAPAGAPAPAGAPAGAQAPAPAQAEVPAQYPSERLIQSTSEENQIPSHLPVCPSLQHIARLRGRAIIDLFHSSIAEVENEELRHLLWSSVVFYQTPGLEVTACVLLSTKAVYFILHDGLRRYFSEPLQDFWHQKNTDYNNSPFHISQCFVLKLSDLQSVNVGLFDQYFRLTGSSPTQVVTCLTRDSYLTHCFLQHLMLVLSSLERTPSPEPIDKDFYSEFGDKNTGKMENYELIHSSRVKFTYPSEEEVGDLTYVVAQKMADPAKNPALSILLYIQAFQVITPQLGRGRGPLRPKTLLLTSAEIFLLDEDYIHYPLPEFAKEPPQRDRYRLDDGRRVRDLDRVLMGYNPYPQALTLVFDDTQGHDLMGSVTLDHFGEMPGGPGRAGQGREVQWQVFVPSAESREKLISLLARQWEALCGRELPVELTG

Ki [1] [nM] | pKi [5] | SMILES | inhibition in vivo at 30 mg/kg [2] [%] | inhibition in vivo at 30 mg/kg [3] [%] | inhibition in vivo at 30 mg/kg [4] [%] | inhibition in vivo at 30 mg/kg [6] [%] | inhibition in vivo at 30 mg/kg [7] [%] | inhibition in vivo at 30 mg/kg [8] [%] | inhibition [9] | Ratio [10]
2240 |  | C[C@H](Cc1ccccc1-c1ccccc1)C1=NCCN1 |  |  |  |  |  |  |  | 
97.7 |  | C[C@@H](Cc1ccccc1-c1ccccc1)C1=NCCN1 |  |  |  |  |  |  |  | 
1050 | < 6 | Cc1ccccc1C[C@@H](C)C1=NCCN1 | 12.7 | 4.18 | 8.67 | 0 | 9.17 | 3.01 |  | 
23.4 | < 6 | Cc1ccccc1CC(C)C1=NCCN1 (stereo not drawn) | 29.7 | 13.6 | 32.4 | 7.66 | 11.7 | 53.1 | inactive | 
> 1000 | < 6 | CC(Cc1ccccc1-c1cccc(O)c1)C1=NCCN1 (stereo not drawn) |  |  |  |  |  |  |  | 
63.1 | < 6 | CC(Cc1ccccc1-c1ccsc1)C1=NCCN1 (stereo not drawn) | 35.1 | 19.7 | 24.8 | 11.2 | 26.4 | 10.8 |  | 
> 1000 | < 6 | CC(Cc1ccccc1-c1cccnc1)C1=NCCN1 (stereo not drawn) |  |  |  |  |  |  |  | 
155 | 4.1 | CC(Cc1ccccc1-c1ccccc1)C1=NCCN1 (stereo not drawn) | 25.4 | 13.8 | 27.6 | 11.9 | 14.2 | 34.9 |  | 513
195 | < 6 | CC(Cc1ccccc1Cl)C1=NCCN1 (stereo not drawn) | 31.4 | 11.6 | 37.8 | 8.02 | 11.1 | 32.4 |  | 
13.2 | < 6 | Cc1ccccc1C[C@H](C)C1=NCCN1 | 26 | 11.1 | 34.4 | 5.89 | 12 | 7.85 |  | 

SMILES | Ki [1] [nM] | pKi [5] | inhibition in vivo at 30 mg/kg [2] [%] | inhibition in vivo at 30 mg/kg [3] [%] | inhibition in vivo at 30 mg/kg [4] [%] | inhibition in vivo at 30 mg/kg [6] [%] | inhibition in vivo at 30 mg/kg [7] [%] | inhibition in vivo at 30 mg/kg [8] [%] | inhibition [9] | Ratio [10]
CC(Oc1ccccc1)C1=NCCN1 (stereo not drawn) | 309 |  |  |  |  |  |  |  |  | 
CC(Oc1ccccc1-c1ccccc1)C1=NCCN1 (stereo not drawn) [BIPHENYLINE] | 126 |  |  |  |  |  |  |  |  | 
